Assay results taken from US20130078268A1, “VACCINE COMPOSITIONS AND METHODS OF USE THEREOF” (priority 2010, published 2013).
Where no end group is shown, it is not given here. [ ]: non-standard residue; d: D form. pGlu = O=C1CC[C@@H](C(=O)O)N1

System: peptide of SEQ ID NO: 1
Experiment: Titer of antibody to the peptide of SEQ ID NO: 1 by peptide-based ELISA in serum of immunised mice
Format: in vivo
Conditions: male C57B1 mice; three subcutaneous injections of 100 μg peptide + 100 μg calcium phosphate nanoparticles at 3-week intervals; two weeks after the last injection
Method: Four male mice (8-week-old, C57B1) were given, three subcutaneous injections of vaccine composition comprising 100 μg of the peptide SEQ ID NO: 1 and 100 μg of calcium phosphate nanoparticles at 3-week intervals. As controls, an additional four mice received the vehicle. Two weeks after the last injection, the titer of antibody to the peptide of SEQ ID NO: 1 was assessed by the peptide-based enzyme-linked immunosorbent assay (ELISA). Samples were run in triplicate on ELISA plates coated with the peptide of the SEQ ID NO: 1, which was used as the immunogen. The peptide was bound in solid phase on high binding 96 well plates. Serum was diluted 1:500 and then serially diluted to a final dilution of 1:64,000. Detection of the antibody was obtained using an HRP conjugated secondary antibody (1:5,000) and TMB micro well peroxidase substrate.
Four male mice (8-week-old, C57B1) were given three intraperitoneal injections of vaccine composition of example 3 at 3-week intervals. As controls, an additional four mice received the vehicle. Two weeks after the last injection, the titer of antibody to the peptide of SEQ ID NO: 1 was assessed by the peptide-based enzyme-linked immunosorbent assay (ELISA) as described in the example 4. […] Thus, the administering vaccine compositions of the invention elicited protective immunity in animals against endogenous peptide of SEQ ID NO: 1.

pGlu-Pro-Pro-Gly-Gly-Ser-Lys-Val-Ile-Leu-Phe ([pGlu]PPGGSKVILF; listed as Homo sapiens) [peptide SEQ ID NO: 1]
geometric mean titer of anti-SEQ ID NO: 1 antibodies in serum: about 70,000
